Measurements: publication PMC3490489 (Clinical cancer research : an official journal of the …, 2012)
Read-outs that look alike come from different tables or passages of the source.

Assays:
[1] = assay type: in vivo, human
[2] = biological target: T1, UGT1A9 (Homo sapiens, UniProt O60656); conditions: panel of purified human UGT enzymes
T1 sequence (O60656 26-530): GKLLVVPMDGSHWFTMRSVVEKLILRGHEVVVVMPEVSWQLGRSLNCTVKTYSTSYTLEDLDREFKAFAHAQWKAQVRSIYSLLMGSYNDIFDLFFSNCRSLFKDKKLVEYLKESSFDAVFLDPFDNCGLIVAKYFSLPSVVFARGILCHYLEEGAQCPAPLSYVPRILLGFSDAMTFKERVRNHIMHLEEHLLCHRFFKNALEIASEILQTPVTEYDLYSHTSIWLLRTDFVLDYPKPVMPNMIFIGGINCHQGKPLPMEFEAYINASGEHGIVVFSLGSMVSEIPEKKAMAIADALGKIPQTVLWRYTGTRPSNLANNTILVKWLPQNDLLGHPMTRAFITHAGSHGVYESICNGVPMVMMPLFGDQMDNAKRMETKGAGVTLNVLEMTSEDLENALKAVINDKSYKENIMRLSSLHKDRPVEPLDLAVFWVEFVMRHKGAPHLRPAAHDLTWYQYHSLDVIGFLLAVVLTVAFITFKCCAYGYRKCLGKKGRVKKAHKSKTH

[3] = cited from earlier work
[4] = biological target: T1, UGT1A9; assay: Inhibition of UGT1A9-mediated sorafenib glucuronidation by azole antifungals; assay type: biochemical
[5] = system: human liver microsomes (HLM); assay: Sorafenib N-oxide formation in microsomes from human liver samples; assay type: in vitro ADME; conditions: 10 to 15 year age group, sorafenib 10 µM, 60 min
[6] = system: AML cell lines; conditions: cited from earlier work
[7] = substrate: CNC(=O)c1cc(Oc2ccc(NC(=O)Nc3ccc(Cl)c(C(F)(F)F)c3)cc2)ccn1; assay: not read; conditions: other: purified human UGT1A9

CNC(=O)c1cc(Oc2ccc(NC(=O)Nc3ccc(Cl)c(C(F)(F)F)c3)cc2)ccn1 [sorafenib, reference compound]
CV% of steady-state sorafenib CL/F ([1]; all 30 patients): 58%
Steady-state sorafenib apparent oral clearance (CL/F), mean±standard deviation ([1]; all 30 patients): 64±37 mL/min/m^2
Enzyme responsible for sorafenib glucuronidation [2]: UGT1A9 is primarily responsible for sorafenib glucuronidation

CC(=O)N1CCN(c2ccc(OCC3COC(Cn4ccnc4)(c4ccc(Cl)cc4Cl)O3)cc2)CC1 (stereo not drawn) [ketoconazole, reference compound]
Effect of ketoconazole on sorafenib plasma clearance ([3]; healthy subjects): no effect on sorafenib plasma clearance
Ki [4]: 2200 nM

CC[C@@H]([C@H](C)O)n1ncn(-c2ccc(N3CCN(c4ccc(OC[C@@H]5CO[C@@](Cn6cncn6)(c6ccc(F)cc6F)C5)cc4)CC3)cc2)c1=O [posaconazole, reference compound]
Effect on sorafenib N-oxide production in vivo (children given sorafenib concurrent with the azole): reduced N-oxide production to negligible levels
Inhibition of sorafenib glucuronidation in vitro [4]: weak inhibitors of sorafenib glucuronidation

C[C@@H](c1ncncc1F)[C@](O)(Cn1cncn1)c1ccc(F)cc1F [voriconazole]
Inhibition of sorafenib glucuronidation in vitro [4]: weak inhibitors of sorafenib glucuronidation

CNC(=O)c1cc(Oc2ccc(NC(=O)Nc3ccc(Cl)c(C(F)(F)F)c3)cc2)cc[n+]1[O-] [sorafenib N-oxide]
Rate of conversion of sorafenib to sorafenib N-oxide ([3]; adults with AML): < 10%
Sorafenib N-oxide as share of circulating sorafenib concentrations ([3]; healthy subjects and cancer patients): approximately 10%
Rate of conversion of sorafenib to sorafenib N-oxide ([3]; twelve children with relapsed/refractory AML): 33%
Sorafenib N-oxide formation velocity, median ([5]; females): −1.5 log[µM/min/mg HLM]
Sorafenib N-oxide formation velocity, median ([5]; males): −1.1 log[µM/min/mg HLM]
N-oxide metabolite ratio (first patient, day 383, concurrent oral voriconazole 150 mg twice daily): 0.05
N-oxide metabolite ratio (second patient, day 575, concurrent oral voriconazole 150 mg twice daily): 0.05
N-oxide metabolite ratio (second patient, day 607, concurrent oral voriconazole 150 mg twice daily): 0.09
Mean sorafenib N-oxide metabolite ratio (metabolite Css,ave / sorafenib Css,ave) ([1]; all patients): ~ 0.30
CV% of sorafenib N-oxide metabolite ratio ([1]; boys greater than 10 years): 11%
CV% of sorafenib N-oxide metabolite ratio ([1]; boys ≤ 10 years): 39%
Conversion to sorafenib N-oxide ([1]; boys ≤ 10 years): 40%
Sorafenib N-oxide metabolite ratio ([1]; boys ≤ 10 years): 0.40±0.15
Mean conversion to sorafenib N-oxide ([1]; children 1 to 19 years): 27%
N-oxide metabolite ratio, boys versus girls ([1]; children ≤ 10 years): approximately 2 fold
Circulating concentrations of sorafenib N-oxide, mean ([1]; children, sorafenib 200 mg/m^2): 2 to 3 µM
Sorafenib N-oxide metabolite ratio ([1]; females, all ages): 0.22±0.10
CV% of sorafenib N-oxide metabolite ratio ([1]; girls greater than 10 years): 20%
CV% of sorafenib N-oxide metabolite ratio ([1]; girls ≤ 10 years): 59%
Sorafenib N-oxide metabolite ratio ([1]; girls ≤ 10 years): 0.22±0.12
Sorafenib N-oxide metabolite ratio ([1]; males older than 10 years): 0.18±0.021
Sorafenib N-oxide metabolite ratio ([1]; males, all ages): 0.26±0.15
Cytotoxic activity [6]: exhibited cytotoxic activity

CCNCCNC(=O)c1c(C)[nH]c(/C=C2\C(=O)Nc3ccc(F)cc32)c1C [N-desethyl-sunitinib]
Share of total pharmacologic activity accounted for by the active metabolite ([3]; cancer patients given sunitinib): 30–50%

B1: UGT1A9 (Homo sapiens) (protein)
chain: T1 sequence (O60656 26-530)
Km [7]: 3.6 ± 0.22 µM
